Source: patent US5629324A, “Thrombin inhibitors” (Merck & Co., Inc., priority 1995, dated 1997)

Biological target: T1, human a-thrombin (Homo sapiens, UniProt P00734)
T1 construct: human a-thrombin
Assay: Proteinase inhibition, human a-thrombin
Format: biochemical
Conditions: 25° C., 0.05M TRIS buffer pH 7.4, 0.15M NaCl, 0.1% PEG
Description: Assays of human a-thrombin and bovine trypsin were performed at 25° C. in 0.05M TRIS buffer pH 7.4, 0.15M NaCl, 0.1% PEG. Trypsin assays also contained 1 mM CaCl2.
Concentrations of stock solutions of Z-GPR-afc were determined from measurements of absorbance at 380 nm of the 7-amino-4-trifluoromethyl coumarin produced upon complete hydrolysis of an aliquot of the stock solution by thrombin.
Times required to achieve equilibration between enzyme and inhibitor were determined in control experiments. Initial velocities of product formation in the absence (Vo) or presence of inhibitor (Vi) were measured. Assuming competitive inhibition, and that unity is negligible compared Km /[S], […] (where [S], [I], and e respectively represent the total concentrations, of substrate, inhibitor and enzyme), the equilibrium constant (Ki) for dissociation of the inhibitor from the enzyme can be obtained from the dependence of Vo /Vi on [I] shown in equation 1.

N=C(N)N1CCC(CNC(=O)[C@@H]2CCCN2C(=O)CC(c2ccccc2)c2ccccc2)CC1
Ki: 2.7 nM

N=C(N)N1CCC(CNC(=O)[C@@H]2CCCN2C(=O)C2(O)c3ccccc3-c3ccccc32)CC1
Ki: 1.1 nM
